Data published in patent publication US12692269B2, “Therapeutic compounds” (Genentech, Inc., priority 2019, dated 2026).

Columns and labels:
Format in all cases: binding
TEAD1 YAP50-100 = TEAD1 YAP50-100 (Homo sapiens, UniProt P28347); assay: TEAD1-YAP HTRF (TR-FRET) protein-protein interaction assay; conditions: TEAD1, YAP peptide 50-100, HTRF; for EC50: read-out: TEAD1 YAP50-100 HTRF combined: EC50
How it was run: (§1)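 Read-out is the TR-FRET 665 nm/615 nm ratio, which falls when compound disrupts TEAD binding to YAP (aa 50-100) or TAZ (aa 13-57) peptide. Eu anti-His-labelled His-TEAD (aa 217-447) saw compound for 30 min, then peptide/streptavidin-XL665 for 60 min, room temperature.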

[1] = molecular target: TEAD4 TAZ (amino acids 13-57) (Homo sapiens, UniProt Q15561); assay: TEAD4-TAZ HTRF (TR-FRET) protein-protein interaction assay; conditions: for TEAD4 TAZ HTRF combined: Max % Inhibition: TEAD4, TAZ peptide; for EC50: TEAD4-TAZ HTRF, TR-FRET 665 nm/615 nm, read-out: TEAD4 TAZ HTRF combined: EC50
How it was run: as §1

[2] = molecular target: TEAD1 TAZ (amino acids 13-57) (Homo sapiens, UniProt P28347); assay: TEAD1-TAZ HTRF (TR-FRET) protein-protein interaction assay; conditions: for TEAD1 TAZ HTRF combined: Max % Inhibition: TEAD1, TAZ peptide; for EC50: TEAD1-TAZ HTRF, TR-FRET 665 nm/615 nm, read-out: TEAD1 TAZ HTRF combined: EC50
How it was run: as §1

[3] = molecular target: TEAD2 TAZ (amino acids 13-57) (Homo sapiens, UniProt Q15562); assay: TEAD2-TAZ HTRF (TR-FRET) protein-protein interaction assay; conditions: for TEAD2 TAZ HTRF combined: Max % Inhibition: TEAD2, TAZ peptide; for EC50: TEAD2-TAZ HTRF, TR-FRET 665 nm/615 nm, read-out: TEAD2 TAZ HTRF combined: EC50
How it was run: as §1

[4] = molecular target: TEAD3 TAZ (amino acids 13-57) (Homo sapiens, UniProt Q99594); assay: TEAD3-TAZ HTRF (TR-FRET) protein-protein interaction assay; conditions: for TEAD3 TAZ HTRF combined: Max % Inhibition: TEAD3, TAZ peptide; for EC50: TEAD3-TAZ HTRF, TR-FRET 665 nm/615 nm, read-out: TEAD3 TAZ HTRF combined: EC50
How it was run: as §1

TEAD3 YAP50-100 = TEAD3 YAP50-100 (Homo sapiens, UniProt Q99594); assay: TEAD3-YAP HTRF (TR-FRET) protein-protein interaction assay; conditions: TEAD3, YAP peptide 50-100, HTRF; for EC50: read-out: TEAD3 YAP50-100 HTRF combined: EC50
How it was run: as §1

TEAD2 YAP50-100 = TEAD2 YAP50-100 (Homo sapiens, UniProt Q15562); assay: TEAD2-YAP HTRF (TR-FRET) protein-protein interaction assay; conditions: TEAD2, YAP peptide 50-100, HTRF; for EC50: read-out: TEAD2 YAP50-100 HTRF combined: EC50
How it was run: as §1

TEAD4 YAP50-100 = TEAD4 YAP50-100 (Homo sapiens, UniProt Q15561); assay: TEAD4-YAP HTRF (TR-FRET) protein-protein interaction assay; conditions: TEAD4, YAP peptide 50-100, HTRF; for EC50: read-out: TEAD4 YAP50-100 HTRF combined: EC50
How it was run: as §1

TEAD3 TAZ (amino acids 13-57), sequence (Q99594 173-435 limits assumed): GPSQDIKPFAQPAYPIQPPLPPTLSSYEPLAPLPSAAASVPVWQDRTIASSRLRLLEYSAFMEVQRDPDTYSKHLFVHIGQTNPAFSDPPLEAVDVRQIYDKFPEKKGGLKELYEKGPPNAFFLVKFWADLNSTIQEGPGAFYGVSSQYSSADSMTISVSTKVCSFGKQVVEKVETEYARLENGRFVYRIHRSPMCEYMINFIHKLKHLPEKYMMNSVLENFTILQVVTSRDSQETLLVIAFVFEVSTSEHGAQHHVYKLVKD
TEAD3 YAP50-100, sequence (Q99594 173-435 limits assumed): as above
TEAD2 YAP50-100, sequence (Q15562 217-447): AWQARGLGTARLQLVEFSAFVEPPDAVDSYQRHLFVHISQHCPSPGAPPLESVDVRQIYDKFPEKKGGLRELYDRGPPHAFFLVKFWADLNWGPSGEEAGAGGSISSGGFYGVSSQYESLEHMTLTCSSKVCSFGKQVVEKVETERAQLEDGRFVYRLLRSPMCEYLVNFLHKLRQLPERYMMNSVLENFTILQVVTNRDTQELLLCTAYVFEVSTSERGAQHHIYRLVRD
TEAD2 TAZ (amino acids 13-57), sequence (Q15562 217-447): as above
TEAD4 TAZ (amino acids 13-57), sequence (Q15561 217-434 limits assumed): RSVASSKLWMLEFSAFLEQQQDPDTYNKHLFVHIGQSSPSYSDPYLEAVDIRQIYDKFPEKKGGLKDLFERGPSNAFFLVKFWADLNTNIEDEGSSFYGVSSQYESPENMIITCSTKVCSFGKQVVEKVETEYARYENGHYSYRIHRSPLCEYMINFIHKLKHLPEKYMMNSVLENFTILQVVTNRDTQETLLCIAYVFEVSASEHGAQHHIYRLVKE
TEAD4 YAP50-100, sequence (Q15561 217-434 limits assumed): as above
TEAD1 YAP50-100, sequence (P28347 167-426 limits assumed): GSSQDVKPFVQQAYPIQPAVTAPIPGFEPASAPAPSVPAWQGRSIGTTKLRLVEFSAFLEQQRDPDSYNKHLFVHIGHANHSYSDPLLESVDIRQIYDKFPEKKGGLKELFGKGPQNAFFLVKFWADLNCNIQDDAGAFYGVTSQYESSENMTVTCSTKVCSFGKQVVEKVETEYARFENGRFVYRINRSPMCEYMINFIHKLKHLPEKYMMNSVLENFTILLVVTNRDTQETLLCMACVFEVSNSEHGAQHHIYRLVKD
TEAD1 TAZ (amino acids 13-57), sequence (P28347 167-426 limits assumed): as above

Structure (SMILES) | TEAD1 YAP50-100 HTRF combined: Max % Inhibition (TEAD1 YAP50-100) | EC50 (TEAD1 YAP50-100) | TEAD4 TAZ HTRF combined: Max % Inhibition [1] | EC50 [1] | TEAD1 TAZ HTRF combined: Max % Inhibition [2] | EC50 [2] | TEAD2 TAZ HTRF combined: Max % Inhibition [3] | EC50 [3] | TEAD3 TAZ HTRF combined: Max % Inhibition [4] | EC50 [4] | TEAD3 YAP50-100 HTRF combined: Max % Inhibition (TEAD3 YAP50-100) | EC50 (TEAD3 YAP50-100) | TEAD2 YAP50-100 HTRF combined: Max % Inhibition (TEAD2 YAP50-100) | EC50 (TEAD2 YAP50-100) | TEAD4 YAP50-100 HTRF combined: Max % Inhibition (TEAD4 YAP50-100) | EC50 (TEAD4 YAP50-100)
Cc1nccnc1-c1nn2c(=O)cc(-c3ccc(C4CCCCC4)cc3)[nH]c2c1C(=O)N(C)C [Compound 20, 5-(4-Cyclohexylphenyl)-N,N-dimethyl-2-(3-methylpyrazin-2-yl)-7-oxo-4,7-dihydropyrazolo[1,5-a]pyrimidine-3-carboxamide] | 72.0% | 50 nM | 34.5% | 940 nM | 63.0% | 50 nM | 50.5% | 20 nM | 56.5% | 70 nM | 65.5% | 50 nM | 53.5% | 20 nM | 37.0% | 820 nM
Cc1nccnc1-c1nn2c(=O)cc(-c3ccc(C4CCCCC4)c(F)c3)[nH]c2c1C(=O)N1CC(CF)C1 [Compound 21, 5-(4-cyclohexyl-3-fluorophenyl)-3-(3-(fluoromethyl)azetidine-1-carbonyl)-2-(3-methylpyrazin-2-yl)pyrazolo[1,5-a]pyrimidin-7(4H)-one] | 74.0% | 40 nM | 51.0% | 30 nM | 71.5% | 40 nM | 61.5% | 10 nM | 69.5% | 90 nM | 69.5% | 80 nM | 62.5% | 10 nM | 49.5% | 30 nM
O=C(c1c(-c2ncccn2)nn2c(=O)cc(-c3ccc(C4CCCCC4)c(F)c3)[nH]c12)N1CC(CF)C1 [Compound 22, 5-(4-Cyclohexyl-3-fluorophenyl)-3-(3-(fluoromethyl)azetidine-1-carbonyl)-2-(pyrimidin-2-yl)pyrazolo[1,5-a]pyrimidin-7(4H)-one] | 69.0% | 140 nM | 48.0% | 60 nM | 64.0% | 110 nM | 57.5% | 20 nM | 57.0% | 210 nM | 60.0% | 210 nM | 58.0% | 20 nM | 45.5% | 70 nM
O=C(c1c(-c2cnccn2)nn2c(=O)cc(-c3ccc(C4CCCCC4)c(F)c3)[nH]c12)N1CC(CF)C1 [Compound 23, 5-(4-Cyclohexyl-3-fluorophenyl)-3-(3-(fluoromethyl)azetidine-1-carbonyl)-2-(pyrazin-2-yl)pyrazolo[1,5-a]pyrimidin-7(4H)-one] | 70.0% | 40 nM | 35.0% | 50 nM | 61.5% | 70 nM | 55.5% | 10 nM | 56.5% | 110 nM | 64.0% | 110 nM | 55.5% | 10 nM | 39.5% | 50 nM
O=C(c1c(-c2ncccn2)nn2c(=O)cc(-c3ccc(CC4CCCC4)cc3)[nH]c12)N1CC(CF)C1 [Compound 24, 5-(4-(Cyclopentylmethyl)phenyl)-3-(3-(fluoromethyl)azetidine-1-carbonyl)-2-(pyrimidin-2-yl) pyrazolo[1,5-a]pyrimidin-7(4H)-one] | 63.0% | 20 nM | 54.0% | 10 nM | 57.0% | 20 nM | 66.5% | – | 43.0% | 30 nM | 52.0% | 20 nM | 66.0% | – | 51.0% | 10 nM
O=C(c1c(-c2cnccn2)nn2c(=O)cc(-c3ccc(CC4CCCC4)cc3)[nH]c12)N1CC(CF)C1 [Compound 25, 5-(4-(Cyclopentylmethyl)phenyl)-3-(3-(fluoromethyl)azetidine-1-carbonyl)-2-(pyrazin-2-yl)pyrazolo[1,5-a]pyrimidin-7(4H)-one] | 60.0% | 30 nM | 47.0% | 20 nM | 52.0% | 40 nM | 62.0% | 10 nM | 44.0% | 40 nM | 50.0% | 40 nM | 63.5% | 10 nM | 45.5% | 20 nM
Cc1cnc(-c2nn3c(=O)cc(-c4ccc(C5CCCCC5)cc4)[nH]c3c2C(=O)N2CC(CF)C2)cn1 [Compound 26, 5-(4-Cyclohexylphenyl)-3-(3-(fluoromethyl)azetidine-1-carbonyl)-2-(5-methylpyrazin-2-yl) pyrazolo [1,5-a]pyrimidin-7(4H)-one] | 71.0% | 60 nM | 45.5% | 290 nM | 70.0% | 100 nM | 72.5% | 30 nM | 60.0% | 150 nM | 66.0% | 140 nM | 70.0% | 30 nM | 44.5% | 340 nM
